Source: patent US20230017786A1, “DEXTR[…] A DISEASE-MODIFYING TREATMENT FOR NEUROPSYCHIATRIC DISORDERS AND DISEASES” (priority 2020, published 2023)
Where “and” joins values, the source holds several entries; their conditions need not be identical. Equal entries are not always repeated. Structures can show the parent of a compound that is named as a salt.

Experiments:
Type in all cases: cell-based
[1] = molecular target: T1, human NMDA receptor GluN1-GluN2D (Homo sapiens, UniProt O15399+Q05586); test: FLIPR calcium assay, test item effect on L-glutamate CRC, GluN1-GluN2D-CHO
T1 construct: expressed in transfected cells; host or cells: CHO
Description: (§1) FLIPR determination of intracellular calcium level was used as a read-out for NMDAR activation.
(§2) 400× compound plate was stored at −20° C. until FLIPR experimental day.
(§3) 4× compound plate was generated from 400× compound plate by addition of up to 30 μl/well of compound buffer on FLIPR experimental day.
(§4) A FLIPR system was used to monitor intracellular calcium level in NMDAR cell lines, pre-loaded for 1 hour with Fluo-4, and then washed with assay buffer.
(§5) Y=Bottom+(Top−Bottom)/(1+10^((LogEC50−Log[A])*HillSlope))

[2] = molecular target: T2, human NMDA receptor GluN1-GluN2A (Homo sapiens, UniProt Q05586+Q12879); test: FLIPR calcium assay, test item effect on L-glutamate CRC, GluN1-GluN2A-CHO
T2 construct: expressed in transfected cells; host or cells: CHO
Description: as §1, §2, §3, §4, §5

[3] = molecular target: T3, human NMDA receptor GluN1-GluN2B (Homo sapiens, UniProt Q05586+Q13224); test: cell-based
T3 construct: expressed in transfected cells; host or cells: CHO
Description: as §1, §2, §3, §4, §5

[4] = molecular target: T4, human NMDA receptor GluN1-GluN2C (Homo sapiens, UniProt Q05586+Q14957); test: FLIPR calcium assay, test item effect on L-glutamate CRC, GluN1-GluN2C-CHO
T4 construct: expressed in transfected cells; host or cells: CHO
Description: as §1, §2, §3, §4, §5

[5] = tested on: diheteromeric human recombinant NMDAR containing GluN1 plus GluN2A, GluN2B, GluN2C or GluN2D; test: FLIPR calcium assay, statements for all four NMDAR subtypes together; conditions: for profile on L-glutamate CRC: 6 test item concentrations
Excerpt: An operational equation for allosteric modulators (Leach K, Sexton P M and Christopoulos A, Allosteric GPCR modulators: taking advantage of permissive receptor pharmacology, Trends Pharmacol. Sci. 28: 382-389, 2007; Kenakin T P, Overview of receptor interaction of agonists and antagonists, Curr. Protoc. Pharmacol. Chapter 4: Unit 4.1, 2008, Kenakin T P, Biased signalling and allosteric machines: new vistas and challenges for drug discovery, Br. J. Pharmacol. 165: 1659-1669, 2012) was created in Prism 8 (GraphPad) software to estimate KB and a parameters for every test item, with the assumption that, as a pore blocker, every test item would be able to produce a compete blockade of agonist response, at sufficiently high concentration: […]

[6] = operational analysis for allosteric modulators

T1 sequence (O15399 28-1336, other chains not shown): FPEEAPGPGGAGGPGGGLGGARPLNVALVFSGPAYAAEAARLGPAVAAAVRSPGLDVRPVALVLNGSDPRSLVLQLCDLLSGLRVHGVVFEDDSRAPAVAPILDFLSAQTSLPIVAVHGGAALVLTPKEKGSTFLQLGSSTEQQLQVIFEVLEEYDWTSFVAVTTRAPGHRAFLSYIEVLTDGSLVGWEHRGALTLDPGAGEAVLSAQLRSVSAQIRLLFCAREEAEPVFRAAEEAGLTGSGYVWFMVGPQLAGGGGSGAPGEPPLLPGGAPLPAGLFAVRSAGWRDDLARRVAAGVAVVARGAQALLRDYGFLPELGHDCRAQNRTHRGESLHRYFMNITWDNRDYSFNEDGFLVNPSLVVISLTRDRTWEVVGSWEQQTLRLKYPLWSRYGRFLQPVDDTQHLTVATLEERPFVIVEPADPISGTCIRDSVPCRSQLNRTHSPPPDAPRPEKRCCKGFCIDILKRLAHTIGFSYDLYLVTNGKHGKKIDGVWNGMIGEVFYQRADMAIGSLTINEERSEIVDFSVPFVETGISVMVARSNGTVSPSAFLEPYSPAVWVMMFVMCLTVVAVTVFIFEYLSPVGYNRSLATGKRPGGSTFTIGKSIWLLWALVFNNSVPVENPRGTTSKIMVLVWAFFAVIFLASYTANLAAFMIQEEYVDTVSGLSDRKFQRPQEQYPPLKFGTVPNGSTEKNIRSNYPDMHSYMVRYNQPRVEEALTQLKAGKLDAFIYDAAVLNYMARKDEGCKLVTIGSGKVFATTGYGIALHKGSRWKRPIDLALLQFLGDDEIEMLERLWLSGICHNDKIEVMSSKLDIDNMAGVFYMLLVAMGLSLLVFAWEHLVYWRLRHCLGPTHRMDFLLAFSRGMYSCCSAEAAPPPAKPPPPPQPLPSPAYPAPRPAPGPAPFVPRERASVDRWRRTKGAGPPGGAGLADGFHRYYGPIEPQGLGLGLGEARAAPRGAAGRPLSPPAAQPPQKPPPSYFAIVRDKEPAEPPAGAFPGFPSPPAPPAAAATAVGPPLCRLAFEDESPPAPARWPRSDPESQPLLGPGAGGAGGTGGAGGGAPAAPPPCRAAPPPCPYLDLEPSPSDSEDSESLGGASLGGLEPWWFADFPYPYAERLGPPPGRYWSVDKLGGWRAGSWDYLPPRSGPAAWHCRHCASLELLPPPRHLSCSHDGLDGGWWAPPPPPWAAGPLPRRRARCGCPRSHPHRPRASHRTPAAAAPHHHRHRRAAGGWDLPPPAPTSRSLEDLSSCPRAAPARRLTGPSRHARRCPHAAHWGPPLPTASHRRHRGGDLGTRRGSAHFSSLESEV
T4 sequence (Q14957 20-1233, other chains not shown): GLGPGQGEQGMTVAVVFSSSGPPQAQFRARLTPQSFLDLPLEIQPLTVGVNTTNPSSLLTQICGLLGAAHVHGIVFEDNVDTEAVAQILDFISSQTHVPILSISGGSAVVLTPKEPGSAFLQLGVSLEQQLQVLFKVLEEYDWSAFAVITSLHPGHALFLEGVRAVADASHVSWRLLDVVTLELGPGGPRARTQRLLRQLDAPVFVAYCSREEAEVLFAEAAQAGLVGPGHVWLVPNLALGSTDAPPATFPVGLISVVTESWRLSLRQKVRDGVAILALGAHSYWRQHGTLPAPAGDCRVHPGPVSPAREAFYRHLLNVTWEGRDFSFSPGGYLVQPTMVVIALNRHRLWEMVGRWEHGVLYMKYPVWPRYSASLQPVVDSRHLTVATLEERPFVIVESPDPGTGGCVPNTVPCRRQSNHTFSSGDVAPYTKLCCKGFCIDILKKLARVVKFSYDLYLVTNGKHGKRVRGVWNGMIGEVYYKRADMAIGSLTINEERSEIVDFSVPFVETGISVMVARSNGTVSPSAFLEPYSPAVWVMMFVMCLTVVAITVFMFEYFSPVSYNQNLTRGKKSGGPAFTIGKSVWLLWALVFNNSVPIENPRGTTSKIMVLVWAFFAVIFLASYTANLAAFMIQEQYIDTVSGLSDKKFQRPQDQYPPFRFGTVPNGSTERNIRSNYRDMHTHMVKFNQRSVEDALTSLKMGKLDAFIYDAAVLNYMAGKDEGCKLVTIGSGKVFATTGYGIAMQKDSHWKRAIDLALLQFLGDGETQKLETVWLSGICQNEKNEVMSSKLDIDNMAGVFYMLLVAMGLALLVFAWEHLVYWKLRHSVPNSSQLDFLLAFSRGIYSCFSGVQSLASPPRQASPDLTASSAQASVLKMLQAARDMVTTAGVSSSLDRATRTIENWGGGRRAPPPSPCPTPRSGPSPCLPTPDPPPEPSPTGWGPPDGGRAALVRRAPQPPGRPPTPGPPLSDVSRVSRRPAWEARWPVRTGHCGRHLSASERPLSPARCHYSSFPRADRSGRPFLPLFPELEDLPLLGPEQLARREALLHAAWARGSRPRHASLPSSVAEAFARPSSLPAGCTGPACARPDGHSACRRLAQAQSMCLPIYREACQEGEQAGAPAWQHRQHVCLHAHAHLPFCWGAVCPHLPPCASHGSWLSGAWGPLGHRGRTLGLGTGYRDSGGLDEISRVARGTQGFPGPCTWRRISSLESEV
T3 sequence (Q13224 27-1484, other chains not shown): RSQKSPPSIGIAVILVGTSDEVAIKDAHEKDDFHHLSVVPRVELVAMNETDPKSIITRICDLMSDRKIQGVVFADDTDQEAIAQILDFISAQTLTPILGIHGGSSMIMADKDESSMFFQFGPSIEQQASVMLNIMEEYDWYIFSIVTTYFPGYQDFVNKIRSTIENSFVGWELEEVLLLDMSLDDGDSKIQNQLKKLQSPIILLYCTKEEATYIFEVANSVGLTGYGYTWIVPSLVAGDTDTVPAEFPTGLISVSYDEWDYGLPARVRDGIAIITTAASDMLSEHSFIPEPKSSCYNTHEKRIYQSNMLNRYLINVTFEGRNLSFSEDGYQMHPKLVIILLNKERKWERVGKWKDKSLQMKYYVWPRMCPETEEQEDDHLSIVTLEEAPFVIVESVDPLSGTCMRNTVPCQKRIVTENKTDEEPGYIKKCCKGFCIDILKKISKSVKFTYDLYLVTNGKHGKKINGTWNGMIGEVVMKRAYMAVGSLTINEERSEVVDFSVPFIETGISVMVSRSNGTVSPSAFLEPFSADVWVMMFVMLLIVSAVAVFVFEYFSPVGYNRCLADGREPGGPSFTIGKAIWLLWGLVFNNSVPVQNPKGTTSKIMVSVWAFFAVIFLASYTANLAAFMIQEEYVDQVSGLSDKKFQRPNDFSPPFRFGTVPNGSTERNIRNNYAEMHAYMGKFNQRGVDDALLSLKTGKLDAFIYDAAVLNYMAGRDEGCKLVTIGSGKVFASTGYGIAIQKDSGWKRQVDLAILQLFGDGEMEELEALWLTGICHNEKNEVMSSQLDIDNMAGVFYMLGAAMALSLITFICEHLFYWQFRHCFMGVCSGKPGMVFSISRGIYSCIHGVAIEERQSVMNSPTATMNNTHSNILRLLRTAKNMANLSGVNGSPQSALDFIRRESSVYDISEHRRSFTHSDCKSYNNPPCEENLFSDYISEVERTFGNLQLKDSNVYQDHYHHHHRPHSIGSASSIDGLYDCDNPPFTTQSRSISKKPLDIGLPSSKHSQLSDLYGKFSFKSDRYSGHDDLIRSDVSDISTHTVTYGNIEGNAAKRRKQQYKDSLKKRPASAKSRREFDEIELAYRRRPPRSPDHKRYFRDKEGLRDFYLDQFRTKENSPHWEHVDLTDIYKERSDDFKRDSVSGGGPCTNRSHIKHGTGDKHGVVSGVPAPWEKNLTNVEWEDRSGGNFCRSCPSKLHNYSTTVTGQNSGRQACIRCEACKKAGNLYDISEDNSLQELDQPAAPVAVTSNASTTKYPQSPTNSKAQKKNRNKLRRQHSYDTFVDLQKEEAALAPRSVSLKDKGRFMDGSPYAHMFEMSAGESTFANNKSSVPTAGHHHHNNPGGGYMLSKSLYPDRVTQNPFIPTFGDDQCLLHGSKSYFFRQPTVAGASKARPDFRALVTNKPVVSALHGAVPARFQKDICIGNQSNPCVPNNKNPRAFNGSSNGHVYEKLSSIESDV

## CC12CC3CC(C)(C1)CC(N)(C3)C2 [Memantine, memantine hydrochloride]
[1]; [6]
  α, estimated cooperativity term: 0.13
[1]; with test item 49 nM
  L-glutamate CRC Bottom: 5.1
  L-glutamate CRC HillSlope: 1.4
  L-glutamate CRC LogEC50: −7.3
  L-glutamate CRC Top: 94
[1]; with test item 195 nM
  L-glutamate CRC Bottom: −0.19
  L-glutamate CRC HillSlope: 1.3
  L-glutamate CRC LogEC50: −7.3
  L-glutamate CRC Top: 89
[1]; with test item 781 nM
  L-glutamate CRC Bottom: 1.1
  L-glutamate CRC HillSlope: 1.4
  L-glutamate CRC LogEC50: −7.2
  L-glutamate CRC Top: 87
[1]; with test item 3.1 μM
  L-glutamate CRC Bottom: −1.3
  L-glutamate CRC HillSlope: 1.3
  L-glutamate CRC LogEC50: −7.1
  L-glutamate CRC Top: 59
[1]; with test item 12.5 μM
  L-glutamate CRC Bottom: 1.4
  L-glutamate CRC HillSlope: 1.5
  L-glutamate CRC LogEC50: −6.7
  L-glutamate CRC Top: 26
[1]; with test item 50 μM
  L-glutamate CRC Bottom: −97133
  L-glutamate CRC HillSlope: 0.14
  L-glutamate CRC LogEC50: −37
  L-glutamate CRC Top: 19
[2]; [6]
  α, estimated cooperativity term: 0.15
[2]; with test item 49 nM
  L-glutamate CRC Bottom: 0.84
  L-glutamate CRC HillSlope: 1.1
  L-glutamate CRC LogEC50: −6.6
  L-glutamate CRC Top: 95
[2]; with test item 195 nM
  L-glutamate CRC Bottom: 1.3
  L-glutamate CRC HillSlope: 1.2
  L-glutamate CRC LogEC50: −6.5
  L-glutamate CRC Top: 92
[2]; with test item 781 nM
  L-glutamate CRC Bottom: 1.1
  L-glutamate CRC HillSlope: 1.2
  L-glutamate CRC LogEC50: −6.3
  L-glutamate CRC Top: 96
[2]; with test item 3.1 μM
  L-glutamate CRC Bottom: −0.58
  L-glutamate CRC HillSlope: 1.1
  L-glutamate CRC LogEC50: −6.4
  L-glutamate CRC Top: 83
[2]; with test item 12.5 μM
  L-glutamate CRC Bottom: −0.14
  L-glutamate CRC HillSlope: 1.3
  L-glutamate CRC LogEC50: −6.3
  L-glutamate CRC Top: 68
[2]; with test item 50 μM
  L-glutamate CRC Bottom: 1.5
  L-glutamate CRC HillSlope: 1.6
  L-glutamate CRC LogEC50: −6.1
  L-glutamate CRC Top: 36
[3]
  α, estimated cooperativity term: 0.094
[3]; hydrochloride
  L-glutamate CRC HillSlope: 2.1 and 1.5 and 1.1 and 1.7 and 1.4
[4]; [6]
  α, estimated cooperativity term: 0.10
[4]; with test item 49 nM
  L-glutamate CRC Bottom: 2.2
  L-glutamate CRC HillSlope: 1.4
  L-glutamate CRC LogEC50: −6.8
  L-glutamate CRC Top: 92
[4]; with test item 195 nM
  L-glutamate CRC Bottom: 2.0
  L-glutamate CRC HillSlope: 1.5
  L-glutamate CRC LogEC50: −6.9
  L-glutamate CRC Top: 85
[4]; with test item 781 nM
  L-glutamate CRC Bottom: 0.92
  L-glutamate CRC HillSlope: 1.4
  L-glutamate CRC Top: 76
[4]; with test item 3.1 μM
  L-glutamate CRC Bottom: 1.3
  L-glutamate CRC HillSlope: 1.2
  L-glutamate CRC LogEC50: −6.5
  L-glutamate CRC Top: 49
[4]; with test item 12.5 μM
  L-glutamate CRC Bottom: 2.5
  L-glutamate CRC HillSlope: 1.1
  L-glutamate CRC LogEC50: −6.4
  L-glutamate CRC Top: 20
[4]; with test item 50 μM
  L-glutamate CRC Bottom: 7.4
  L-glutamate CRC HillSlope: 6.1
  L-glutamate CRC LogEC50: −6.3
  L-glutamate CRC Top: 11
[5]
  profile on L-glutamate CRC: insurmountable profile

## (+)-MK 801 maleate
[5]
  profile on L-glutamate CRC: insurmountable profile
[5]; from estimated affinities
  GluN2 subunit preference: slight preference for GluN2B containing NMDAR
[5]; read-out: estimated KB with any/all of the NMDAR subtypes
  Kb: 0.05 µM and ≤ 0.05 µM
